Reference: publication PMC7278359, “Small molecule AX-024 reduces T cell proliferation independently of CD3ϵ/Nck1 interaction, which is governed by a domain swap in the Nck1-SH3.1 domain” (The Journal of Biological Chemistry, 2020)

What was measured:
Nck1-SH3.1 [1] = target: T1, Nck1-SH3.1 (Homo sapiens, UniProt P16333); test: SPR binding to immobilized Nck1-SH3.1; settings: SPR, peptide up to 200 μM, Nck1-SH3.1 1260 RU, single titration, qualitative
T1 construct: His10-Avi-TEV-Nck1-SH3.1 (residues 1–61, MM 11,847 Da) was biotinylated and immobilized via streptavidin; made in house; host or cells: Escherichia coli BL21 (DE3)
Protocol: SPR experiments were conducted on a T200 Biacore instrument (GE Healthcare, Uppsala, Sweden) at 20 °C in 10 mM HEPES/NaOH, pH 7.8, 150 mM NaCl, 1 mM TCEP. […] Streptavidin is immobilized on the CAP sensor by way of double-strand DNA formation. A ssDNA is covalently coupled to the sensor surface, and a complementary DNA strand, covalently linked to streptavidin, is hybridized. To regenerate the surface, the DNA duplex is dissociated by washing with high-ionic strength solution. […] The reference channel for binding studies contained the same streptavidin-coated surface blocked with biotin.
Five replicates were performed for each CD3ϵ concentration (Table S1), whereas for the qualitative assessment of the APVA variant, only a single titration was performed.
SPR equilibrium signals were corrected for the signal in the reference channel and buffer contributions. The resulting SPR amplitudes were plotted as a function of peptide concentration, and a simple binding equation describing a Langmuir adsorption isotherm was fit to the data (GraphPad Prism) to extract the equilibrium dissociation constant Kd. (Eq. 1) RU=RUmax·[peptide]/[peptide]+Kd

CD4 T cell = test: Cytotoxicity / viability of CD4 T cells in proliferation assay; assay type: cell-based, human; settings: 4 days, decreased cell viability (gray boxes in Fig. 2)
Protocol: (§1) Figure 2. […] CD4 T cell proliferation was assessed upon stimulation with anti-CD3ϵ by CFSE dilution as a measure for cellular proliferation, analyzed on day 4. For rapamycin and AX-024–treated cells, the dashed line indicates control proliferation at a DMSO concentration of 0.2%. For CD3ϵ-derived peptides 11Rwt, 11R085, and 11Rscr, the dashed line indicates control proliferation at 0.3% DMSO, 0.3% PBS. 11Rwt has sequence R11-G3-[…], 11R085 R11-G3-Q(dK)[…], and 11Rscr R11-G3-[…](dK)PQP. A polyarginine tag is used to enable cell penetration of the peptides ([10]). The gray boxes indicate concentrations of compound leading to decreased cell viability. These values should be disregarded. Binding of peptides 11Rwt and 11R085, but not 11Rscr, to Nck-SH3.1 was confirmed by NMR spectroscopy (Fig. S1). Asterisks, p < 0.05 as determined by a repeated-measure one-way analysis of variance with Holm–Sidak's multiple-comparison test to DMSO/PBS. Dotted lines, mean DMSO/PBS values. Error bars, S.D.
(§2) Fresh human peripheral blood mononuclear cells (PBMCs) from healthy donors (n = 4) were prepared from buffy coats. CD3^+ T cells were isolated by immunomagnetic separation (negative selection, StemCell, lot 18A87710), carboxyfluorescein succinimidyl ester (CFSE)-labeled, resuspended in StemCell Immunocult^TM-XF T cell expansion medium, and treated with compounds or vehicle for 2 h at room temperature. The isolated CD3^+ T cells were stained for CD3, CD4, and CD8, and their purity was assessed by flow cytometry. Cells were then cultured in a 96-well flat-bottomed plate (10^5 cells/well), precoated for 1 h at 37 °C with 0.2 μg·ml^−1 plate-bound anti-CD3 (clone OKT3, BioLegend). […] Cells were cultured in the presence of AX-024, rapamycin, peptide 11Rwt, peptide 11R85, peptide 11Rscr (derived from Ref. [11]; see below for sequences), or vehicle for 4 days. At the end of culture, cells were stained for viability, and CFSE dilution was assessed by flow cytometry (with gating on CD4 versus CD8).

CD8 T cell proliferation = CD8 T cell proliferation by CFSE dilution; assay type: cell-based, human; settings: concentrations low enough to avoid cytotoxic effects; data not shown
Protocol: as §2

CD4 T cell proliferation = CD4 T cell proliferation by CFSE dilution, anti-CD3 stimulation; assay type: cell-based, human; settings: concentrations up to 1 μM; anti-CD3, CFSE dilution, day 4, 0.3% DMSO/0.3% PBS control
Protocol: as §1, §2

Nck1-SH3.1 [2] = target: T1, Nck1-SH3.1; test: NMR binding of poly-Arg CD3ϵ-derived peptides to Nck1-SH3.1; settings: Fig. S1
Protocol: NMR spectra were recorded on a Bruker 600-MHz Avance NEO spectrometer equipped with a cryogenic QCI probe head at 27 °C in 25 mM […], 150 mM NaCl. The Topspin 4.0 software (Bruker, Fällanden) was used for spectrometer operation and data processing. For ^1H ligand-observed measurements, a relaxation filtered pulse sequence utilizing a spinlock of 50 ms was applied. 1D spectra were acquired with 128 scans, a sweep width of 26 ppm, and an acquisition time of 2 s. 2D ^1H-^15N HSQC spectra with natural ^15N isotope abundance were recorded over 72 h with a spectral width of 16 ppm and 35 ppm in the proton and nitrogen dimensions, respectively, with 256 increments (complex) and 1000 scans per increment. A relaxation delay of 1 s was used between scans. For the DOSY measurements (reviewed in Ref. [51]), the Bruker pulse sequence ledbpgp2s with a diffusion delay of 50 ms and a gradient length of 600 μs was used. The gradient strength was varied from 5 to 95% to record 16 increments of 512 scans with a sweep width of 18 ppm and a relaxation delay of 1 s.
Samples for ligand-observed measurements were prepared in 25 mM sodium phosphate buffer, pH 6.5, 150 mM NaCl. One sample contained 50 μM AX-024, and the other contained 50 μM CD3ϵ peptide.

| Substance | fold weaker binding of APVA mutant than WT CD3ϵ peptide (Nck1-SH3.1 [1]) | concentration at which peptides were cytotoxic (CD4 T cell) | effect on CD8 T cell proliferation (CD8 T cell proliferation) | inhibition of CD4 T cell proliferation by peptides (CD4 T cell proliferation) | binding to Nck1-SH3.1 by NMR (Nck1-SH3.1 [2]) |
| --- | --- | --- | --- | --- | --- |
| RGQNKERPAPVANPDY-NH2 [APVA variant of CD3ϵ peptide] | ~10 -fold |  |  |  |  |
| R11-G3-PKVRECPDYK(dK)PQP [11Rscr, scrambled peptide with the same composition as 11R085 but lacking the canonical PRS] |  | exceeding 6 μM | did not affect CD8 T cell proliferation | none of the peptides inhibited CD4 T cell proliferation | does not |
| R11-G3-RGYNKERPPPVPNPDY [11Rwt, R11-G3-tagged cell-penetrating CD3ϵ-derived peptide] |  | exceeding 6 μM | did not affect CD8 T cell proliferation | none of the peptides inhibited CD4 T cell proliferation | bind to Nck1-SH3.1 |
| R11-G3-Q(dK)KECPPPVPKRDY [11R085, R11-G3-tagged cell-penetrating CD3ϵ-derived peptide] |  | exceeding 6 μM | did not affect CD8 T cell proliferation | none of the peptides inhibited CD4 T cell proliferation | bind to Nck1-SH3.1 |
